Measurements as given in patent US5523421A (Pacific Corporation, priority 1993, dated 1996).

Experiments:
tyrosinase [1] = assay: Tyrosinase-inhibiting activity; format: biochemical, mushroom; settings: for IC50: mushroom tyrosinase, tyrosine substrate, pH 6.8, 37° C., 10 minutes, absorbance at 475 nm
Method: As an enzyme, the tyrosinase, which was extracted from mushroom and produced by SIGMA was purchased. Tyrosine, a substrate was dissolved into distilled water to a concentration of 0.3 mg/ml and each 1.0 ml of the solution was placed into a test tube. […] Ethanol and water were used to dilute the test compounds. As a control, 0.9 ml of 1:1 mixture of ethanol and water was used. […] The test tube was quickly cooled in an ice water bath to stop the reaction, and the absorbance was measured at 475 nm. […] From the inhibitions(%) of tyrosinase by a series of dilutions of test compounds, IC50, i.e., a concentration of test compound which inhibit the tyrosinase by 50% was calculated for each test compound.

[2] = DPPH (diphenylpicrylhydrazyl) radical-scavenging test; settings: 100 μM DPPH in ethanol, 37° C., 30 minutes, 515 nm
Method: Harmful radicals-scavenging activity of the compounds of Examples 1 through 6 were compared with those of conventional anti-oxidants by using DPPH(diphenylpicrylhydrazyl) radical-scavenging test as follows:
DPPH was dissolved into ethanol to a concentration of 100 μM. A series of dilutions of compounds of Examples 1 through 6, vitamin C, vitamin E or hydroquinone were prepared.
Ethanol and water were used to dilute the test compounds. As a control, 1:1 mixture of ethanol and water was used. The series of dilutions of each test compound were mixed with 1,900 μl of DPPH solution and the dilution solvent was added to 2.0 ml. The resulting mixture was reacted in a 37° C. incubator for 30 minutes. The absorbance was measured at 515 nm. The radical-scavenging activities of the compounds of Examples 1 through 6 and conventional anti-oxidants were calculated by employing the following equation: [formula]
From the radical scavenging activity(%) by a series of dilutions of test compounds, IC50, i.e., a concentration of test compound which scavenge the radical, DPPH by 50% was calculated for each test compound.

human skin = assay: human body patch test (skin safety); format: in vivo; settings: for number of positive subject/the number of total subjects, 48 hours later / number of positive subject/the number of total subjects, 96 hours later: 0.2 wt % in cream, 20 μl finn chamber on brachium; for safety to human skin (in words): patch test conclusion
Method: In order to examine the safety of the compounds of Examples 1 through 6, the human body patch test was carried out as follows:
The brachium of thirty(30) healthy volunteers (15 females and 15 males) was thoroughly washed with 70% ethanol and applied with a finn chamber containing 20 μl of a conventional creamy preparation incorporating 0.2 wt % of one of the compound of Examples 1 to 6. The finn chamber was thoroughly bonded to the brachium using an adhesive tape. 48 hours later, the tape and chamber were removed, and the adherent site of the arm was wiped with a gauze to remove the remaining preparation and observed for redness(erythma), swelling, and papuol. 48 hours later, the site was examined again.
The results are shown in terms of the number of positive subject/the number of total subjects.

tyrosinase [3] = settings: background, known activity; cited from earlier work

| Molecule | IC50 (tyrosinase [1]) | IC50 [2] | tyrosinase-inhibiting activity (in words) (tyrosinase [1]) | number of positive subject/the number of total subjects, 48 hours later (human skin) | number of positive subject/the number of total subjects, 96 hours later (human skin) | safety to human skin (in words) (human skin) | skin response after 96 hours (in words) (human skin; preparation with 0.2 wt % of compound, 96 hours) | tyrosinase inhibition (in words, prior art) (tyrosinase [3]) |
| --- | --- | --- | --- | --- | --- | --- | --- | --- |
| O=C(OCc1cc(=O)c(O)co1)c1ccc(O)cc1 [Example 1, 2-(4-hydroxybenzoyl)oxymethyl-5-hydroxy-4H-pyran-4-one] | 10 µM | 1910 µM |  | 0/30 | 0/30 | safe to the human skin |  |  |
| O=C(OCc1cc(=O)c(O)co1)c1ccccc1O [Example 2, 2-(2-hydroxybenzoyl)oxymethyl-5-hydroxy-4H-pyran-4-one] | 15 µM | 2230 µM |  | 2/30 | 0/30 | safe to the human skin |  |  |
| O=C(OCc1cc(=O)c(O)co1)c1cccc(O)c1 [Example 3, 2-(3-hydroxybenzoyl)oxymethyl-5-hydroxy-4H-pyran-4-one] | 15 µM | 2030 µM |  | 1/30 | 1/30 | considered to be safe | only one(1) among 30 subjects show a weak positive response |  |
| O=C(OCc1cc(=O)c(O)co1)c1ccc(O)c(O)c1 [Example 4, 2-(3,4-dihydroxybenzoyl)oxymethyl-5-hydroxy-4H-pyran-4-one] | 4 µM | 11.5 µM | strongest tyrosinase-inhibiting activity | 1/30 | 0/30 | safe to the human skin |  |  |
| Oc1ccc(O)cc1 [Hydroquinone, reference compound] |  | 25.4 µM |  |  |  |  |  |  |
| O=c1cc(CO)occ1O [Kojic acid] |  |  |  |  |  |  |  | strongly inhibiting the action of tyrosinase |

Continued, in another order:

| IC50 (tyrosinase [1]) | IC50 [2] | tyrosinase-inhibiting activity (in words) (tyrosinase [1]) | Molecule | number of positive subject/the number of total subjects, 48 hours later (human skin) | number of positive subject/the number of total subjects, 96 hours later (human skin) | safety to human skin (in words) (human skin) | skin response after 96 hours (in words) (human skin; preparation with 0.2 wt % of compound, 96 hours) | tyrosinase inhibition (in words, prior art) (tyrosinase [3]) |
| --- | --- | --- | --- | --- | --- | --- | --- | --- |
| 14 µM | 11.3 µM |  | O=C(OCc1cc(=O)c(O)co1)c1cccc(O)c1O [Example 5, 2-(2,3-dihydroxybenzoyl)oxymethyl-5-hydroxy-4H-pyran-4-one] | 1/30 | 0/30 | safe to the human skin |  |  |
| 6 µM | 15 µM | strongest tyrosinase-inhibiting activity | O=C(OCc1cc(=O)c(O)co1)c1ccc(O)cc1O [Example 6, 2-(2,4-dihydroxybenzoyl)oxymethyl-5-hydroxy-4H-pyran-4-one] | 0/30 | 0/30 | safe to the human skin |  |  |
|  | 29.2 µM |  | O=C1O[C@H]([C@@H](O)CO)C(O)=C1O [Vitamin C, reference compound] |  |  |  |  |  |
|  | 34.8 µM |  | tocopherol [Vitamin E, reference compound] |  |  |  |  |  |
